The target in the experiment is T1, Retinoic acid receptor alpha (Homo sapiens) (UniProt P10276).
T1 sequence (whole entry): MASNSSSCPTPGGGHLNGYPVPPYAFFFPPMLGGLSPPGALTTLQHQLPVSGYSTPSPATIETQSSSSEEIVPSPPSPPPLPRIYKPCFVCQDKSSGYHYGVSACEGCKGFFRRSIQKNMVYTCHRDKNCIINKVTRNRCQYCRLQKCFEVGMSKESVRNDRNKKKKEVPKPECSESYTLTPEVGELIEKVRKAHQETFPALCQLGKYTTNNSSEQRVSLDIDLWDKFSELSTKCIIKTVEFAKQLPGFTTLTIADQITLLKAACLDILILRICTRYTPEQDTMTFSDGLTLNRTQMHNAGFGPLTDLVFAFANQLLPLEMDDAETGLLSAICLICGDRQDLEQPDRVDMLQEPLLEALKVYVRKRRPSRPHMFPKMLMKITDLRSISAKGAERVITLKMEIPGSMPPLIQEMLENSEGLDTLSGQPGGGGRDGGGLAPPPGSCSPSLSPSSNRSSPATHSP
The experiment in a line: Transactivation of RARalpha expressed in mammalian cells assessed as effect on palindromic thyroid hormone response element-driven transcriptional activation by luciferase reporter gene assay. The experiment is classed as cell-based. A general note: A reporter such as luciferase makes a cellular process visible.

The structures appear in SMILES notation. Calls of active or inactive are those of the source. No cut-off for these calls is given here.

The values below come from ChEMBL document CHEMBL1148080, “Identification of an activator of the retinoid X receptor” (J Nat Prod, 1994).

`CC1=C(/C=C/C(C)=C\C=C\C(C)=C\C(=O)O[C@@H]2O[C@H](CO)[C@@H](O)[C@H](O)[C@H]2O)C(C)(C)CCC1`: the result was Active.
